Measurements reported in US11752122B2 (OKLAHOMA MEDICAL RESEARCH FOUNDATION, priority 2018, dated 2023).
“Also recorded” adds a separate entry of the source. Where two headings read alike, the source gives them in different places.

How the values were obtained:
[1] = cited from earlier work
[2] = test system: aortic valves of LDLR mice on HFD; assay: Histology and immunohistochemical staining of aortic valves of LDLR mice on HFD; format: in vivo; conditions: LDLR mice at 6 months on HFD, NAC 3-5 and 5-6 months combined, vs untreated
Description: Histology and immunofluorescent staining of aortic valve sections. Mice receiving HFD were euthanized at 6 months and perfused with PBS. Hearts with their attached ascending aorta were excised, fixed in 4% paraformaldehyde for 24 hours and processed for routine paraffin embedding. Tissues were cut in 5 μm thick sections in the middle of the heart to get maximum valve thickness (FIG. 12) and stained with picrosirius red for collagen. For immunofluorescent staining, tissue sections were deparaffinized and rehydrated by immersing in xylene and a series of graded alcohols, followed by heat (97° C.)-induced epitope retrieval using Tris-EDTA buffer, pH 9.0 for 30 minutes. Slides were incubated for 1 hour at RT with blocking buffer (1% BSA+0.3M glycine in Tris-NaCl-Tween buffer) and then incubated overnight at 4° C. with primary antibodies at final concentrations of 0.5 μg/ml. After washing in wash buffer (Tris-NaCl-Tween) and incubation with a fluorescent secondary antibody at RT for 2 hours, slides were washed with wash buffer three times and mounted with a fluorescence mounting medium containing diamidino-2-phenylindole (DAPI) to stain nuclei.
Images were photographed using Ziess 710 Confocal or Nikon eclipse 80i fluorescence microscope. Positively-stained areas and total valve areas in immunohistochemical and histological images were quantified as shown in FIG. 13. Primary antibodies used were anti-phospho-Smad2 (Ser465/467) (AB3849, Millipore), anti-vimentin (ab92547, Abcam), anti-α-SMA (904601, Biolegend), Isolectin B4 (121411, Life Technologies), anti-CD41 (14-0411, eBioscience), anti-CD62P (148301, Biolegend), and anti-collagen (SAB1402151, Sigma). Species-matched secondary antibodies conjugated to Alexa 488, Alexa 594, or Alexa 647 were used. Histology images were analyzed and quantified using ImageJ (NIH).

[3] = target: T1, latent TGF-β1 released from platelets (Homo sapiens, UniProt P01137); conditions: in vitro; cited from earlier work
T1 construct: host or cells: platelet releasate
T1 sequence (P01137 30-278 limits assumed): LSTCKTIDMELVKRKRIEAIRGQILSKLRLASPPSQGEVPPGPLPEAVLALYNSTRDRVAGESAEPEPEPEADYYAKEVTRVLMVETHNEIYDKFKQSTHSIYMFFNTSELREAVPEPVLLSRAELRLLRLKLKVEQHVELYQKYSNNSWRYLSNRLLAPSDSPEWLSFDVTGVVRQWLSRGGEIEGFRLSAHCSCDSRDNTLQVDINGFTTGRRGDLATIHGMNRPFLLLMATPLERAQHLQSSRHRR
T1 sequence (P01137 279-390 limits assumed): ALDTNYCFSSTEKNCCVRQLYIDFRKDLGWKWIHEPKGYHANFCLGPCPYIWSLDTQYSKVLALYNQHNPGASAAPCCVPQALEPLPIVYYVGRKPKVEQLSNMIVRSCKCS
T1 sequence (Q14766 24-1721 partner): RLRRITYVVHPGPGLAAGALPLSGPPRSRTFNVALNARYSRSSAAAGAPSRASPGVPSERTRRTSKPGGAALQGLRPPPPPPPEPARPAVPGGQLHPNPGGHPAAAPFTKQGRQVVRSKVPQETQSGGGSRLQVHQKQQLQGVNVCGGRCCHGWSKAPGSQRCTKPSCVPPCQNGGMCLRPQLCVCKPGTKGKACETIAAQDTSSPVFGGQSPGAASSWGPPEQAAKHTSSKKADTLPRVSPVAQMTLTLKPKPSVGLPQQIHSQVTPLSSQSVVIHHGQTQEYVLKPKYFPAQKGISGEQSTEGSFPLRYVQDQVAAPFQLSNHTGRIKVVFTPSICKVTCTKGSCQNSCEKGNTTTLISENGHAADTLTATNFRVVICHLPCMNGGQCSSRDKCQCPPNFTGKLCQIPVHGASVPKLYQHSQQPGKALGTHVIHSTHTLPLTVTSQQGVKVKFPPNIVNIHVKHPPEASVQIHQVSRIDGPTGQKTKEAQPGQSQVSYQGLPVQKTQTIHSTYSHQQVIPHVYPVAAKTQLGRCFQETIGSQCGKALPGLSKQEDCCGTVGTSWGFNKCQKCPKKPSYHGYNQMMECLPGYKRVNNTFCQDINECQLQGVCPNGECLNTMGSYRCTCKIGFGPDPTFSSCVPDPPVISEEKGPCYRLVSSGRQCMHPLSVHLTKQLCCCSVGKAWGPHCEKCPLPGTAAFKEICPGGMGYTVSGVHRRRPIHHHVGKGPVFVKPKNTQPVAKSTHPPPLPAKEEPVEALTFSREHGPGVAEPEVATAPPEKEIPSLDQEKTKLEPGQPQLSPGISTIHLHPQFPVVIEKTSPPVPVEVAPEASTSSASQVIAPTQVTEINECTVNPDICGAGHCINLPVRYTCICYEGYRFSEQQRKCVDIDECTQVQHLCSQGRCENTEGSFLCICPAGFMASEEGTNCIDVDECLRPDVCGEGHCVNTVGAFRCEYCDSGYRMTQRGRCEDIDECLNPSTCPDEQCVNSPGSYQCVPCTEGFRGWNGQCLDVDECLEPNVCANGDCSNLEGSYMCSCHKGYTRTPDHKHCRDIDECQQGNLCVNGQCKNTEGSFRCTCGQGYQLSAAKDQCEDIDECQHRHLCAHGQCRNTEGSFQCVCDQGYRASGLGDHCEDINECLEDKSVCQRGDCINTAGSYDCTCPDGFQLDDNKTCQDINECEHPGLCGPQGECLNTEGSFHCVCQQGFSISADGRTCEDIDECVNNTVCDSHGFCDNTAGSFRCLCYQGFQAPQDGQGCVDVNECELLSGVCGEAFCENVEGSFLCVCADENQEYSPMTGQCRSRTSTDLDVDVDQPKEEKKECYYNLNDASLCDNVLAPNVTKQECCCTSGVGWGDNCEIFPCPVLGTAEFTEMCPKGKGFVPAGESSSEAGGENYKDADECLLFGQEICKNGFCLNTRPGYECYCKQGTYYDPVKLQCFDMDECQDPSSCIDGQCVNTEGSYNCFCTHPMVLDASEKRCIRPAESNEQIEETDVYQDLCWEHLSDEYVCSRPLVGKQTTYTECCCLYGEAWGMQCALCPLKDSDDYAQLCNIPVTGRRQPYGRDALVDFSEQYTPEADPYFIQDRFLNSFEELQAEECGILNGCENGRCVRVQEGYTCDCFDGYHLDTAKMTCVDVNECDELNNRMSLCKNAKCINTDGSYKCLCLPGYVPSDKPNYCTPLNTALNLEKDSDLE

[4] = cited from earlier work; remark: listed apart in the source
mouse model = conditions: large doses, mouse model; cited from earlier work
[5] = Activity and stability of NAC dissolved in water; format: physicochemical; conditions: up to 15 days; tested by effect on blocking shear-dependent TGF-β1 activation
From the text: Experimental Design. […] Water was replaced with a fresh solution every week.

Which liver damage ([1]; taken 4 hours after alcohol, dose-dependent) does the source give for `CC(=O)N[C@@H](CS)C(=O)O` [NAC, N-acetylcysteine] here?
Its liver damage is “made liver damage worse”.

And the liver damage ([1]; taken before alcohol)?
The liver damage was “prevented liver damage”.

And the aortic valve area [2]?
Its aortic valve area is “reduced”.

And the “fibrosis in aortic valves” value [2]?
The value was “reduced”.

What about the “p-Smad2 staining in aortic valves” value [2] of the same molecule?
The value was “reduced”.

What about the “shear-dependent activation of latent TGF-β1 released from platelets” value [3] of the same molecule?
The value was “inhibited; also recorded: partially inhibits; also recorded: blocks”.

And the solubility ([4]; alcohol)?
Its solubility is “soluble”.

And the solubility ([4]; chloroform)?
Its solubility is “practically insoluble”.

What about the solubility ([4]; ether) of the same molecule?
Its solubility is “practically insoluble”.

What about the solubility ([4]; water) of the same molecule?
Its solubility is “soluble”.

And the “damage to the heart and lungs” value (mouse model)?
The value was “could potentially cause damage to the heart and lungs”.

What about the “activity and stability after dissolving in water” value [5] of the same molecule?
Its value is “validated”.
